Data published in patent publication US11247972B2, “Compositions and methods for treating toxoplasmosis, cryptosporidiosis, and other apicomplexan protozoan related diseases” (University of Washington through its Center for …, priority 2010, dated 2022).

Assays:
PfCDPK4 = PfCDPK4 (Plasmodium falciparum (isolate 3D7), UniProt Q8IBS5); test: biochemical; conditions: read-out: PfCDPK4 (% inhibition @ 3 uM)
PfCDPK1 = PfCDPK1 (Plasmodium falciparum (isolate 3D7), UniProt P62344); test: biochemical; conditions: read-out: PfCDPK1 (% inhibition @ 3 uM)

CC(C)(C)n1nc(-c2ccc(-c3ccccc3)cc2)c2c(N)ncnc21 [Compound 136]
inhibition at 3 µM (PfCDPK4): 16%
inhibition at 3 µM (PfCDPK1): 90%

CCOc1ccc2cc(-c3nc(C(C)(C)C)n4ccnc(N)c34)ccc2c1 [Compound 69, 3-tert-butyl-1-(6-ethoxynaphthalen-2-yl)imidazo[1,5-a]pyrazin-8-amine]
inhibition at 3 µM (PfCDPK4): 97%
inhibition at 3 µM (PfCDPK1): 101%

N[C@@H](Cc1c[nH]cn1)C(=O)Nc1nc2ccc(C(=O)c3ccccc3)cc2[nH]1 [Compound 111]
inhibition at 3 µM (PfCDPK4): 41%
inhibition at 3 µM (PfCDPK1): 63%

CC(C)COc1ccc2cc(-c3nn(C(C)(C)C)c4ncnc(N)c34)ccc2c1 [Compound 130]
inhibition at 3 µM (PfCDPK4): 47%
inhibition at 3 µM (PfCDPK1): 95%

Cc1ccc(C(F)(F)F)cc1COc1ccc2cc(-c3nn(C(C)C)c4ncnc(N)c34)ccc2c1 [Compound 50, 1-isopropyl-3-(6-(2-methyl-5-(trifluoromethyl)benzyloxy)naphthalen-2-yl)-1H-pyrazolo[3,4-d]pyrimidin-4-amine]
inhibition at 3 µM (PfCDPK4): 26%
inhibition at 3 µM (PfCDPK1): 83%

Nc1ncnc2c1c(Cc1cccc3ccccc13)nn2CC1CCCCC1 [Compound 17, 1-(cyclohexylmethyl)-3-(naphthalen-1-ylmethyl)-1H-pyrazolo[3,4-d]pyrimidin-4-amine]
inhibition at 3 µM (PfCDPK4): 5%
inhibition at 3 µM (PfCDPK1): 44%

CC(C)(C)n1ncc2c(N)ncnc21 [Compound 123]
inhibition at 3 µM (PfCDPK4): 4%
inhibition at 3 µM (PfCDPK1): 62%

CC(C)c1nc(-c2cnc3ccccc3c2)c2c(N)nccn12 [Compound 9, 3-isopropyl-1-(quinolin-3-yl)imidazo[1,5-a]pyrazin-8-amine]
inhibition at 3 µM (PfCDPK4): 88%
inhibition at 3 µM (PfCDPK1): 76%

CCCOc1ccc2cc(-c3nn(CC4CCNCC4)c4ncnc(N)c34)ccc2c1 [Compound 33, 1-(piperidin-4-ylmethyl)-3-(6-propoxynaphthalen-2-yl)-1H-pyrazolo[3,4-d]pyrimidin-4-amine]
inhibition at 3 µM (PfCDPK4): 98%

Cc1cccc2[nH]c(-c3nc(C(C)(C)C)n4ccnc(N)c34)cc12 [Compound 83]
inhibition at 3 µM (PfCDPK4): 93%
inhibition at 3 µM (PfCDPK1): 96%

CCN1CCC(CCn2nc(Cc3cccc4ccccc34)c3c(N)ncnc32)CC1 [Compound 5o, 1-(2-(1-ethylpiperidin-4-yl)ethyl)-3-(naphthalen-1-ylmethyl)-1H-pyrazolo[3,4-d]pyrimidin-4-amine]
inhibition at 3 µM (PfCDPK4): 37%
inhibition at 3 µM (PfCDPK1): 71%

CC(C)n1nc(-c2ccc3cc(OCc4ccc(CC(F)(F)F)c(Cl)c4)ccc3c2)c2c(N)ncnc21 [Compound 51, 3-(6-(3-chloro-4-(2,2,2-trifluoroethyl)benzyloxy)naphthalen-2-yl)-1-isopropyl-1H-pyrazolo[3,4-d]pyrimidin-4-amine]
inhibition at 3 µM (PfCDPK4): 92%
inhibition at 3 µM (PfCDPK1): 86%

CC(C)n1nc(-c2cccc3c2sc2ccccc23)c2c(N)ncnc21 [Compound 7x, 3-(dibenzo[b,d]thiophen-4-yl)-1-isopropyl-1H-pyrazolo[3,4-d]pyrimidin-4-amine]
inhibition at 3 µM (PfCDPK4): 21%

CCN1CCC(n2nc(Cc3cccc4ccccc34)c3c(N)ncnc32)CC1 [Compound 5m, 1-(1-ethylpiperidin-4-yl)-3-(naphthalen-1-ylmethyl)-1H-pyrazolo[3,4-d]pyrimidin-4-amine]
inhibition at 3 µM (PfCDPK4): 42%

C=CCOc1ccc2cc(-c3nn(CC4CCNCC4)c4ncnc(N)c34)ccc2c1 [Compound 36, 3-(6-(allyloxy)naphthalen-2-yl)-1-(piperidin-4-ylmethyl)-1H-pyrazolo[3,4-d]pyrimidin-4-amine]
inhibition at 3 µM (PfCDPK4): 99%

Nc1nc2ccc(C(=O)c3ccccc3)cc2[nH]1 [Compound 92]
inhibition at 3 µM (PfCDPK4): 51%
inhibition at 3 µM (PfCDPK1): 68%

CC(C)n1nc(-c2cccc3ccccc23)c2c(N)ncnc21 [Compound 7o, 1-isopropyl-3-(naphthalen-1-yl)-1H-pyrazolo[3,4-d]pyrimidin-4-amine]
inhibition at 3 µM (PfCDPK4): 79%
inhibition at 3 µM (PfCDPK1): 58%

CC(C)(C)n1nc(-c2ccccc2)c2c(N)ncnc21 [Compound 140]
inhibition at 3 µM (PfCDPK4): 90%
inhibition at 3 µM (PfCDPK1): 98%

Cc1cccc(-c2nn(C(C)(C)C)c3ncnc(N)c23)c1 [Compound 134]
inhibition at 3 µM (PfCDPK4): 87%
inhibition at 3 µM (PfCDPK1): 89%

NCCCCNC(=O)Nc1nc2ccc(C(=O)c3ccccc3)cc2[nH]1 [Compound 128]
inhibition at 3 µM (PfCDPK4): 64%
inhibition at 3 µM (PfCDPK1): 79%

N#Cc1cccc(-c2ccc(-c3nn(CC4CCNCC4)c4ncnc(N)c34)cc2)c1 [Compound 74, 4′-(4-amino-1-(piperidin-4-ylmethyl)-1H-pyrazolo[3,4-d]pyrimidin-3-yl)biphenyl-3-carbonitrile]
inhibition at 3 µM (PfCDPK4): 68%
inhibition at 3 µM (PfCDPK1): 97%

Nc1ncnc2c1c(-c1ccc3nccnc3c1)nn2CC1CCNCC1 [Compound 122]
inhibition at 3 µM (PfCDPK4): 32%
inhibition at 3 µM (PfCDPK1): 97%

CC(C)n1nc(-c2ccc3ccccc3c2)c2c(N)ncnc21 [Compound 7p, 1-isopropyl-3-(naphthalen-2-yl)-1H-pyrazolo[3,4-d]pyrimidin-4-amine]
inhibition at 3 µM (PfCDPK4): 98%
inhibition at 3 µM (PfCDPK1): 95%

CC(C)n1nc(-c2cncnc2)c2c(N)ncnc21 [Compound 18, 1-isopropyl-3-(pyrimidin-5-yl)-1H-pyrazolo[3,4-d]pyrimidin-4-amine]
inhibition at 3 µM (PfCDPK4): 4%

CC(C)n1nc(-c2ccc3c(ccn3C)c2)c2c(N)ncnc21 [Compound 20, 1-isopropyl-3-(1-methyl-1H-indol-5-yl)-1H-pyrazolo[3,4-d]pyrimidin-4-amine]
inhibition at 3 µM (PfCDPK4): 93%

Nc1ncnc2c1c(-c1ccc3cc(OCc4ccccc4Cl)ccc3c1)nn2CC1CCNCC1 [Compound 37, 3-(6-(2-chlorobenzyloxy)naphthalen-2-yl)-1-(piperidin-4-ylmethyl)-1H-pyrazolo[3,4-d]pyrimidin-4-amine]
inhibition at 3 µM (PfCDPK4): 96%

Nc1ncnc2c1c(Cc1cccc3ccccc13)nn2Cc1ccccc1 [Compound 5e, 1-benzyl-3-(naphthalen-1-ylmethyl)-1H-pyrazolo[3,4-d]pyrimidin-4-amine]
inhibition at 3 µM (PfCDPK4): 5%

CCCCOc1ccc2cc(-c3nn(CC4CCNCC4)c4ncnc(N)c34)ccc2c1 [Compound 35, 3-(6-butoxynaphthalen-2-yl)-1-(piperidin-4-ylmethyl)-1H-pyrazolo[3,4-d]pyrimidin-4-amine]
inhibition at 3 µM (PfCDPK4): 99%

Nc1ncnc2c1c(Cc1cccc3ccccc13)nn2C1CCCCC1 [Compound 5f, 1-cyclohexyl-3-(naphthalen-1-ylmethyl)-1H-pyrazolo[3,4-d]pyrimidin-4-amine]
inhibition at 3 µM (PfCDPK4): 15%

CC(C)n1nc(-c2cccnc2)c2c(N)ncnc21 [Compound 16, 1-isopropyl-3-(pyridin-3-yl)-1H-pyrazolo[3,4-d]pyrimidin-4-amine]
inhibition at 3 µM (PfCDPK4): 13%

CC(C)n1nc(-c2cc3ccccc3[nH]2)c2c(N)ncnc21 [Compound 24, 3-(1H-indol-2-yl)-1-isopropyl-1H-pyrazolo[3,4-d]pyrimidin-4-amine]
inhibition at 3 µM (PfCDPK4): 93%

CC(C)n1nc(-c2cccc(Cc3ccccc3)c2)c2c(N)ncnc21 [Compound 7y, 3-(3-benzylphenyl)-1-isopropyl-1H-pyrazolo[3,4-d]pyrimidin-4-amine]
inhibition at 3 µM (PfCDPK4): 17%

Cn1nc(Cc2cccc3ccccc23)c2c(N)ncnc21 [Compound 5a, 1-methyl-3-(naphthalen-1-ylmethyl)-1H-pyrazolo[3,4-d]pyrimidin-4-amine]
inhibition at 3 µM (PfCDPK4): 52%

COc1ccc2[nH]c(-c3nn(C(C)C)c4ncnc(N)c34)cc2c1 [Compound 27, 1-isopropyl-3-(5-methoxy-1H-indol-2-yl)-1H-pyrazolo[3,4-d]pyrimidin-4-amine]
inhibition at 3 µM (PfCDPK4): 44%

CC(C)n1nc(-c2ccnc(Cl)c2)c2c(N)ncnc21 [Compound 19, 3-(2-chloropyridin-4-yl)-1-isopropyl-1H-pyrazolo[3,4-d]pyrimidin-4-amine]
inhibition at 3 µM (PfCDPK4): 14%

CC(C)Oc1ccc2cc(-c3nn(CC4CCNCC4)c4ncnc(N)c34)ccc2c1 [Compound 32, 3-(6-isopropoxynaphthalen-2-yl)-1-(piperidin-4-ylmethyl)-1H-pyrazolo[3,4-d]pyrimidin-4-amine]
inhibition at 3 µM (PfCDPK4): 96%

CS(=O)(=O)N1CCC(n2nc(Cc3cccc4ccccc34)c3c(N)ncnc32)CC1 [Compound 5p, 1-(1-(methylsulfonyl)piperidin-4-yl)-3-(naphthalen-1-ylmethyl)-1H-pyrazolo[3,4-d]pyrimidin-4-amine]
inhibition at 3 µM (PfCDPK4): 53%

CC(=O)N1CCC(n2nc(Cc3cccc4ccccc34)c3c(N)ncnc32)CC1 [Compound 5j, 1-(4-(4-amino-3-(naphthalen-1-ylmethyl)-1H-pyrazolo[3,4-d]pyrimidin-1-yl)piperidin-1-yl)ethanone]
inhibition at 3 µM (PfCDPK4): 48%

Nc1ncnc2c1c(Cc1cccc3ccccc13)nn2C1CCOCC1 [Compound 15, 3-(naphthalen-1-ylmethyl)-1-(tetrahydro-2H-pyran-4-yl)-1H-pyrazolo[3,4-d]pyrimidin-4-amine]
inhibition at 3 µM (PfCDPK4): 11%

Nc1ncnc2c1c(Cc1cccc3ccccc13)nn2C1CCCC1 [Compound 13, 1-cyclopentyl-3-(naphthalen-1-ylmethyl)-1H-pyrazolo[3,4-d]pyrimidin-4-amine]
inhibition at 3 µM (PfCDPK4): 25%

CC(C)n1nc(Cc2ccc3ccccc3c2)c2c(N)ncnc21 [Compound 14, 1-isopropyl-3-(naphthalen-2-ylmethyl)-1H-pyrazolo[3,4-d]pyrimidin-4-amine]
inhibition at 3 µM (PfCDPK4): 13%

C#CCn1nc(Cc2cccc3ccccc23)c2c(N)ncnc21 [Compound 5b, 3-(naphthalen-1-ylmethyl)-1-(prop-2-ynyl)-1H-pyrazolo[3,4-d]pyrimidin-4-amine]
inhibition at 3 µM (PfCDPK4): 20%

CC(C)n1nc(-c2ccc3c(c2)CCCO3)c2c(N)ncnc21 [Compound 7w, 3-(chroman-6-yl)-1-isopropyl-1H-pyrazolo[3,4-d]pyrimidin-4-amine]
inhibition at 3 µM (PfCDPK4): 55%

Nc1ncnc2c1c(-c1ccc3cc(OCc4cccc(Cl)c4)ccc3c1)nn2CC1CCNCC1 [Compound 38, 3-(6-(3-chlorobenzyloxy)naphthalen-2-yl)-1-(piperidin-4-ylmethyl)-1H-pyrazolo[3,4-d]pyrimidin-4-amine]
inhibition at 3 µM (PfCDPK4): 96%
